This note sets out measurements from patent US20240109917A1 (ACTELION PHARMACEUTICALS LTD, priority 2020, published 2024).

Structures are written as SMILES. pIC50: −log10 of the molar value.

The target in one assay is PDGFRβ (Rattus norvegicus (Rat), UniProt Q05030). The assay can be described thus: PDGFRβ Cellular Assay (PDGFRb P-Y751 HTRF in A10 cells stimulated with PDGF-BB). The class given is cell-based. The conditions noted are these: read-out: PDGFR Cellular IC50. The gist of the method: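 Phospho-Y751 PDGFRβ was measured by HTRF in lysates of A10 rat cells. Cells received compound for 3 hours before PDGF-BB stimulation (100 ng/mL working stock).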
(In TR-FRET formats the signal depends on donor and acceptor labels being close together.)

Assay [1] has as its target Tb-labeled inactive PDGFRβ (Homo sapiens (Human), UniProt P09619). The assay can be described thus: PDGFRβ LanthaScreen Assay. The format is binding. The conditions noted are these: read-out: PDGFR Lantha IC50.
Assay [2] has as its target His6-TEV-PDGFRβ (557-1016) (Homo sapiens (Human), UniProt P09619). The assay can be described thus: PDGFRβ HTRF Assay. The class given is biochemical. The conditions noted are these: read-out: PDGFR HTRF IC50. The method, boiled down:
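HTRF KinEASE-TK readout (665/620 nm ratio) of TK-biotin substrate phosphorylation by His-tagged PDGFRβ kinase domain. Enzyme and inhibitor preincubated 30 min, then ATP/substrate added for 3 h at room temperature before 60 min EDTA quench/detection.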

His6-TEV-PDGFRβ (557-1016), sequence (P09619 557-1016): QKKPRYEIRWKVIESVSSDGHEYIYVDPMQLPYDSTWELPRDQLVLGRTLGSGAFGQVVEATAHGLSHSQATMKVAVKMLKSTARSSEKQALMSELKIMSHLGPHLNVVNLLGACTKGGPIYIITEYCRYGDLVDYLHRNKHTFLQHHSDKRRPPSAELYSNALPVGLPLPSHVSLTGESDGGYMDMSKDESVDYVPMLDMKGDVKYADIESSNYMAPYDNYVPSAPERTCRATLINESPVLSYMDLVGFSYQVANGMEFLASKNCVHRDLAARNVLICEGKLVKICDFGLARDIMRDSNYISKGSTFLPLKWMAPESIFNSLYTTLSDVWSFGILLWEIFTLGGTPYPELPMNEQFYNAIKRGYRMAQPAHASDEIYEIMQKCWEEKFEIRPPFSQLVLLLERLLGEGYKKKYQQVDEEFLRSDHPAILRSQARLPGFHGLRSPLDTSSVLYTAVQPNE
PDGFRβ, sequence (Q05030 32-1097): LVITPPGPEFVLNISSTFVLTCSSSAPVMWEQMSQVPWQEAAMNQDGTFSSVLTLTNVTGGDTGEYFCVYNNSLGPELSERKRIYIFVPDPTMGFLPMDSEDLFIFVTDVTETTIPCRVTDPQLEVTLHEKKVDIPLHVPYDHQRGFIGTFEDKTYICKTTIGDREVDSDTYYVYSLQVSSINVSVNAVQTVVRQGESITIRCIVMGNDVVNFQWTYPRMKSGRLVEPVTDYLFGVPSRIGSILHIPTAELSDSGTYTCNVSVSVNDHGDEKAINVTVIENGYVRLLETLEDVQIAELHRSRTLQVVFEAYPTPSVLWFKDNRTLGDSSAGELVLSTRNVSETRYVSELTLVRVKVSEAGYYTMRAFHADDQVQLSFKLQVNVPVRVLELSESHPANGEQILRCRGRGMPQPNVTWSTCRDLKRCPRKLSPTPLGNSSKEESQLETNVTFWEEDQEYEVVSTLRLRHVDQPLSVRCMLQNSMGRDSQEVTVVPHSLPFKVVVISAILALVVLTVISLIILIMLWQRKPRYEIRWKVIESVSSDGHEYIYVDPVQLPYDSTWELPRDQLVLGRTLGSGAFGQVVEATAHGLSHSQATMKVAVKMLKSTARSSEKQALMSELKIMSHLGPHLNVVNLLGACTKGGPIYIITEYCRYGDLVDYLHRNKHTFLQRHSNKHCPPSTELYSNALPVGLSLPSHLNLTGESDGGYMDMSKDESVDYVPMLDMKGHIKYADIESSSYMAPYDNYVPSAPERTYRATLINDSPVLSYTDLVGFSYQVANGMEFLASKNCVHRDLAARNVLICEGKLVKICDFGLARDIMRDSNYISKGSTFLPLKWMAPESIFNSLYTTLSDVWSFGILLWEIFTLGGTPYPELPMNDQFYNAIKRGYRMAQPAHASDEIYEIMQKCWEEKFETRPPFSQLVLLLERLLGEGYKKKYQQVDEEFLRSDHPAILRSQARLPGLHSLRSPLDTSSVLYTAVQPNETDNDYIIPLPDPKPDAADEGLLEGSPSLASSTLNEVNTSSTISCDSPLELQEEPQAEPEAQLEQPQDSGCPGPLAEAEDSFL
Tb-labeled inactive PDGFRβ, sequence (P09619 33-1106): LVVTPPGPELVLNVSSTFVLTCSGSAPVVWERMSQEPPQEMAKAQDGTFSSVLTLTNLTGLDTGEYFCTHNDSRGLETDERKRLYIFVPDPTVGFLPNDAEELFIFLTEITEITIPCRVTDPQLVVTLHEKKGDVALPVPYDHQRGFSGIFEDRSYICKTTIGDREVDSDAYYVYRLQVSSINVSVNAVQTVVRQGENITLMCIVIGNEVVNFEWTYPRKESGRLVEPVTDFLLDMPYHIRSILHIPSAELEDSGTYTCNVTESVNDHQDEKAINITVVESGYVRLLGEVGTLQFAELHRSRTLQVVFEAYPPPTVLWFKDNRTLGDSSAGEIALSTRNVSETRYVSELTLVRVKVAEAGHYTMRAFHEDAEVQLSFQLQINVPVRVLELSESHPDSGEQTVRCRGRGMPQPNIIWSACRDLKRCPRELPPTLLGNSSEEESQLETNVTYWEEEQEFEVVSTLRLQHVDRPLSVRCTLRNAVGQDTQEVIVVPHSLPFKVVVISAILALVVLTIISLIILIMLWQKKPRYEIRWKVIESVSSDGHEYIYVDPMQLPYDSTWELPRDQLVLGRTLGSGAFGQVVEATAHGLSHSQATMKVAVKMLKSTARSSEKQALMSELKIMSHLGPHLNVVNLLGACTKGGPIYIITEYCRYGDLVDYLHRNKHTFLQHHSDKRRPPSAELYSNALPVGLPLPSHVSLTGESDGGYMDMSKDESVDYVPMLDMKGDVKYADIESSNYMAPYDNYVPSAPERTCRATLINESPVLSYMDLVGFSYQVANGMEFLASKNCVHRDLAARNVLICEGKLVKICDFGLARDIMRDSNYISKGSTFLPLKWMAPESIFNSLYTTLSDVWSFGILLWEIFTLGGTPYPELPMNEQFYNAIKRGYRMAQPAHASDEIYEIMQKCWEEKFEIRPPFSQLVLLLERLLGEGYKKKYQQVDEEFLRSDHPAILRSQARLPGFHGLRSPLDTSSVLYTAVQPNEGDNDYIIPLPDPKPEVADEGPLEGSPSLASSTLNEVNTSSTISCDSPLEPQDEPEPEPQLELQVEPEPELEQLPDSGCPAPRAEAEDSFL

`Cc1ncc(C(=O)NCCN2CCC3(CC3)C2)cc1NC(=O)c1cnn2cc(-c3cccnc3)sc12` [Example 159, N-(5-((2-(5-azaspiro[2.4]heptan-5-yl)ethyl)carbamoyl)-2-methylpyridin-3-yl)-2-(pyridin-3-yl)pyrazolo[5,1-b]thiazole-7-carboxamide]: the pIC50 on PDGFRβ is 7.06; in assay [1], 7.67; in assay [2], 9.15.

With `Cc1ncc(C(=O)NCCN2CCC3(CC3)C2)cc1NC(=O)c1cnn2cc(-c3ccccn3)sc12` [Example 160, N-(5-((2-(5-azaspiro[2.4]heptan-5-yl)ethyl)carbamoyl)-2-methylpyridin-3-yl)-2-(pyridin-2-yl)pyrazolo[5,1-b]thiazole-7-carboxamide], the pIC50 was 7.60 on PDGFRβ, 8.36 in assay [1] and 9.70 in assay [2].

With `Cc1ncc(C(=O)NCCN2CC(C)(C)C2)cc1NC(=O)c1cnn2cc(-c3cn(C)cn3)sc12` [Example 161], the pIC50 on PDGFRβ is 6.91; in assay [1] it was 7.92; in assay [2], 9.30.

With `Cc1ncc(C(=O)NCCN2CCC3(CC3)C2)cc1NC(=O)c1cnn2cc(-c3cn(C)cn3)sc12` [Example 162, N-(5-((2-(5-azaspiro[2.4]heptan-5-yl)ethyl)carbamoyl)-2-methylpyridin-3-yl)-2-(1-methyl-1H-imidazol-4-yl)pyrazolo[5,1-b]thiazole-7-carboxamide], the pIC50 is 6.18 on PDGFRβ, 8.11 in assay [1] and 9.40 in assay [2].

As for `Cc1ncc(C(=O)NCCN2CCCC2(C)C)cc1NC(=O)c1cnn2cc(-c3cn(C)cn3)sc12` [Example 163, N-(5-((2-(2,2-dimethylpyrrolidin-1-yl)ethyl)carbamoyl)-2-methylpyridin-3-yl)-2-(1-methyl-1H-imidazol-4-yl)pyrazolo[5,1-b]thiazole-7-carboxamide], the negative-log IC50 (pIC50) at PDGFRβ is 6.80; in assay [1], 8.41; in assay [2], 9.52.

As for `COCCn1cc(-c2cn3ncc(C(=O)Nc4cc(C(=O)NCCN5CCC(F)(F)CC5)cnc4C)c3s2)cn1` [Example 165, N-(5-((2-(4,4-difluoropiperidin-1-yl)ethyl)carbamoyl)-2-methylpyridin-3-yl)-2-(1-(2-methoxyethyl)-1H-pyrazol-4-yl)pyrazolo[5,1-b]thiazole-7-carboxamide], the pIC50 at PDGFRβ was 7.94; in assay [1] it was 8.47; in assay [2], 9.22.

On to `COCCn1cc(-c2cn3ncc(C(=O)Nc4cc(C(=O)NCCN5CC(C)(C)C5)cnc4C)c3s2)cn1` [Example 166, N-(5-((2-(3,3-dimethylazetidin-1-yl)ethyl)carbamoyl)-2-methylpyridin-3-yl)-2-(1-(2-methoxyethyl)-1H-pyrazol-4-yl)pyrazolo[5,1-b]thiazole-7-carboxamide], for which the results for the pIC50 (at PDGFRβ; in assay [1]; in assay [2]) were 6.63, 7.86 and 9.15, respectively.

`COCCn1cc(-c2cn3ncc(C(=O)Nc4cc(C(=O)NCCN5CCC(F)(F)C5)cnc4C)c3s2)cn1` [Example 167, N-(5-((2-(3,3-difluoropyrrolidin-1-yl)ethyl)carbamoyl)-2-methylpyridin-3-yl)-2-(1-(2-methoxyethyl)-1H-pyrazol-4-yl)pyrazolo[5,1-b]thiazole-7-carboxamide]: the pIC50 was 7.61 at PDGFRβ, 8.38 in assay [1] and 9.30 in assay [2].

In the case of `COCCn1cc(-c2cn3ncc(C(=O)Nc4cc(C(=O)NCCN5CC6(CCC6)C5)cnc4C)c3s2)cn1` [Example 168, N-(5-((2-(2-azaspiro[3.3]heptan-2-yl)ethyl)carbamoyl)-2-methylpyridin-3-yl)-2-(1-(2-methoxyethyl)-1H-pyrazol-4-yl)pyrazolo[5,1-b]thiazole-7-carboxamide], the negative-log IC50 (pIC50) at PDGFRβ is 6.43; in assay [1], 7.76; in assay [2], 9.22.

For the compound `Cc1ncc(C(=O)NCCN2CCC23CCC3)cc1NC(=O)c1cnn2cc(-c3cnn(C)c3C)sc12` [Example 169, N-(5-((2-(1-azaspiro[3.3]heptan-1-yl)ethyl)carbamoyl)-2-methylpyridin-3-yl)-2-(1,5-dimethyl-1H-pyrazol-4-yl)pyrazolo[5,1-b]thiazole-7-carboxamide], the pIC50 at PDGFRβ is 7.82; in assay [1], 8.55; in assay [2] it was 9.52.

Turning to `Cc1ncc(C(=O)NCCN2CCC3(CC3)C2)cc1NC(=O)c1cnn2cc(-c3cnn(C)c3C)sc12` [Example 170, N-(5-((2-(5-azaspiro[2.4]heptan-5-yl)ethyl)carbamoyl)-2-methylpyridin-3-yl)-2-(1,5-dimethyl-1H-pyrazol-4-yl)pyrazolo[5,1-b]thiazole-7-carboxamide], the pIC50 on PDGFRβ is 7.47; in assay [1], 8.39; in assay [2] it was 9.52.

As to `Cc1ncc(C(=O)NCCN2CC3CCC2CC3)cc1NC(=O)c1cnn2cc(-c3cnn(C)c3C)sc12` [Example 171, N-(5-((2-(2-azabicyclo[2.2.2]octan-2-yl)ethyl)carbamoyl)-2-methylpyridin-3-yl)-2-(1,5-dimethyl-1H-pyrazol-4-yl)pyrazolo[5,1-b]thiazole-7-carboxamide], the pIC50 at PDGFRβ was 7.46; in assay [1], 8.59; in assay [2] it was 9.52.

Consider `Cc1ncc(C(=O)NCCN2C3CCC2CC3)cc1NC(=O)c1cnn2cc(-c3cnn(C)c3C)sc12` [Example 172, N-(5-((2-(7-azabicyclo[2.2.1]heptan-7-yl)ethyl)carbamoyl)-2-methylpyridin-3-yl)-2-(1,5-dimethyl-1H-pyrazol-4-yl)pyrazolo[5,1-b]thiazole-7-carboxamide], for which the pIC50 at PDGFRβ was 7.18; in assay [1] it was 8.52; in assay [2], 9.52.

Take `Cc1ncc(C(=O)NCCN2CCCC2(C)C)cc1NC(=O)c1cnn2cc(-c3cnn(C)c3C)sc12` [Example 173, 2-(1,5-dimethyl-1H-pyrazol-4-yl)-N-(5-((2-(2,2-dimethylpyrrolidin-1-yl)ethyl)carbamoyl)-2-methylpyridin-3-yl)pyrazolo[5,1-b]thiazole-7-carboxamide]: the figures for the pIC50 (on PDGFRβ; in assay [1]; in assay [2]) were 7.93, 8.51 and 9.52, respectively.

Consider `Cc1ncc(C(=O)NCCN2CCCC2(C)C)cc1NC(=O)c1cnn2cc(-c3cn(C)nc3C)sc12` [Example 174, 2-(1,3-dimethyl-1H-pyrazol-4-yl)-N-(5-((2-(2,2-dimethylpyrrolidin-1-yl)ethyl)carbamoyl)-2-methylpyridin-3-yl)pyrazolo[5,1-b]thiazole-7-carboxamide], for which the pIC50 was 8.00 on PDGFRβ, 8.60 in assay [1] and 9.52 in assay [2].

For `Cc1ncc(C(=O)NCCN2CCC23CCC3)cc1NC(=O)c1cnn2cc(-c3cn(C)nc3C)sc12` [Example 175, N-(5-((2-(1-azaspiro[3.3]heptan-1-yl)ethyl)carbamoyl)-2-methylpyridin-3-yl)-2-(1,3-dimethyl-1H-pyrazol-4-yl)pyrazolo[5,1-b]thiazole-7-carboxamide], the pIC50 is 7.78 at PDGFRβ, 8.42 in assay [1] and 9.30 in assay [2].

For `Cc1ncc(C(=O)NCCN2CCCC23COC3)cc1NC(=O)c1cnn2cc(-c3cn(C)nc3C)sc12` [Example 176, N-(5-((2-(2-oxa-5-azaspiro[3.4]octan-5-yl)ethyl)carbamoyl)-2-methylpyridin-3-yl)-2-(1,3-dimethyl-1H-pyrazol-4-yl)pyrazolo[5,1-b]thiazole-7-carboxamide], the pIC50 was 7.54 on PDGFRβ, 8.51 in assay [1] and 9.30 in assay [2].

In the case of `Cc1ncc(C(=O)NCCN2CCC3(CC3)C2)cc1NC(=O)c1cnn2cc(-c3cn(C)nc3C)sc12` [Example 177, N-(5-((2-(5-azaspiro[2.4]heptan-5-yl)ethyl)carbamoyl)-2-methylpyridin-3-yl)-2-(1,3-dimethyl-1H-pyrazol-4-yl)pyrazolo[5,1-b]thiazole-7-carboxamide], the pIC50 on PDGFRβ was 7.74; in assay [1], 8.59; in assay [2], 9.52.

`Cc1ncc(C(=O)NCCN2CC3CCC2CC3)cc1NC(=O)c1cnn2cc(-c3cn(C)nc3C)sc12` [Example 178, N-(5-((2-(2-azabicyclo[2.2.2]octan-2-yl)ethyl)carbamoyl)-2-methylpyridin-3-yl)-2-(1,3-dimethyl-1H-pyrazol-4-yl)pyrazolo[5,1-b]thiazole-7-carboxamide]: the pIC50 on PDGFRβ is 7.73; in assay [1], 8.74; in assay [2] it was 9.70.

Consider `Cc1ncc(C(=O)NCCN2CCCC23COC3)cc1NC(=O)c1cnn2cc(-c3c(C)nn(C)c3C)sc12` [Example 179, N-(5-((2-(2-oxa-5-azaspiro[3.4]octan-5-yl)ethyl)carbamoyl)-2-methylpyridin-3-yl)-2-(1,3,5-trimethyl-1H-pyrazol-4-yl)pyrazolo[5,1-b]thiazole-7-carboxamide], for which the negative-log IC50 (pIC50) is 7.26 on PDGFRβ, 8.16 in assay [1] and 9.00 in assay [2].

As usually defined, the pIC50 is the negative decadic logarithm of the IC50, by convention in mol/L.
